Measured values published in patent US20110077230A1, “COPPER ORGANOCOMPLEXES, USE THEREOF AS ANTITUMOR MEANS AND FOR PROTECTING HEALTHY TISSUE FROM IONIZING RADIATION” (CHARITE - UNIVERSITATSMEDIZIN BERLIN, priority 2008, published 2011).

Assays:
[1] = test system: human mammary gland tumor cells, T4N2M0 stage; test: In vitro effect on human mammary gland tumor cells, Experiment 2; assay type: cell-based
Protocol: (§1) Tumor cells were collected from the surgical material of female patients suffering from mammary carcinoma at two different stages. The tumor tissue was added with sterile 0.25% trypsin solution and centrifuged repeatedly in RPMI-1640 nutrient medium for 15 minutes at 1500 revolutions per minute. The amount of resulting cells was counted and the suspension of tumor cells divided into five equal groups. The RPMI-1640 nutrient medium was added with 12% fetal calf serum. The cells were incubated for 48 h at 37° C. in a 5% CO2 stream.
(§2) The preparations were dissolved in 4% DMSO and physiological saline and acidified with HCl.
(§3) Two experiments were performed using cancer cells derived from tumors of different stages. To differentiate the various stages of cancer, the TNM classification is used internationally which takes into account the tumor size (T), lymph node affection (N=nodal status) and the extent of metastasis (M).
(T3: large tumor spreading into the tissue surrounding the breast; N2: metastases up to 9 axillary lymph nodes, M0: no distant metastases). A suspension including 40 million cells was added with 50 μl of each preparation.
(§4) The 5 groups with cancer cells received the following:
(§5) After subjecting the preparations to flow incubation for 60 minutes, trypan blue stained cells were produced, and dead cells and apoptosis could be determined; dead cells and apoptotic cells were determined in specific units of time and morphological findings.

[2] = test system: human mammary gland tumor cells, T2N1M0 stage; test: In vitro effect on human mammary gland tumor cells, Experiment 1; assay type: cell-based
Protocol: as §1, §2, §3
(T2: tumor up to 5 cm; N1; metastases in 3 lymph nodes; M0: no distant metastases). A suspension including 40 million cells was added with 50 μl of each preparation.
as §4, §5

neutrophils = test: Antioxidant properties: ROS formation in neutrophils; assay type: cell-based, male mice of the NMRI line; conditions: triggered by PMA and fMLF, depending on the dosage
Text: The complexes A and C show a pronounced effect as antioxidant in an environment having an excess of reactive oxygen species (ROS). Thus, ROS formation in neutrophils obtained from male mice of the NMRI line was triggered by two activators: phorbol 12-myristate 13-acetate (PMA) and N-formyl-methionyl-leucylphenylalanine (fMLF).

[3] = Solubility and stability of the complexes
[4] = test system: Hep-2 tumor cells of human laryngeal carcinoma; test: Copper uptake by Hep-2 cells (EPR); assay type: cell-based
Protocol: Complex A dissolved in Tween 80 was mixed with liposomes from lecithin. This mixture was added with a culture of Hep-2 cells, and the EPR spectra were recorded over time. A culture having no complex A preparation was measured for comparison. The EPR spectra allow quantitative determination of the copper content in the tumor cells. […] This corresponds to an intake of 10 copper-containing molecules in a cell. This saturation value of the cells is reached within 1.5 to 2 hours (FIG. 21). In addition, the cell suspension was purified by filtration, and the filtrate containing the cellular components was fractionated using a centrifuge.

[5] = test system: primary lymphoblasts from ALL patients; test: Ex vivo induction of apoptosis in primary lymphoblasts; assay type: cell-based, human; conditions: concentration in LC50 range of NALM-6, 60 hours, cells resistant to daunorubicin and doxorubicin
Protocol: Thereafter, the cells were incubated for 60 hours at 37° C. and 5% CO2, subsequently stained with propidium iodide and quantified using flow cytometry in an FACS.

thymocytes [6] = test: Cytosolic calcium (chlortetracycline fluorescence) in thymocytes; assay type: cell-based, rats of the Wistar line; conditions: depending on the dose
Protocol: (§6) The Ehrlich ascites carcinoma (EAC) was obtained from white male mice of the strain MNR1 and the thymocytes from the thymus of rats of the Wistar line. Vitality of the cells was tested by vital staining using trypan blue and experiments and determined to be no less than 95% in all experiments. The NADH state in the EAC cells was assessed with reference to their fluorescence intensity. Measurement of the intracellular calcium concentration was performed according to the standard methodology of fluorescence using chlortetracycline. The membrane potential was measured using the fluorescent dye No. 1104. NADH is a source of electrons in the oxidative phosphorylation process. […] These effects are directed to inhibiting the NAD-dependent dehydrogenase. As a result, the respiratory chain in the tumor cells is inhibited.
The concentration of intracellular calcium is a trigger for a number of intracellular processes (FIG. 17c, 17d).

thymocytes [7] = test: Membrane potential of thymocytes (fluorescent dye); assay type: cell-based, rats of the Wistar line
Protocol: as §6
Moreover, the complexes A and C have an influence on the membrane potential of thymocytes.

Walker carcinosarcoma = test: Nitrosyl complexes of hem iron (EPR) in Walker carcinosarcoma; assay type: in vivo, rats; conditions: 30 mg/kg intraabdominally in liposomes, especially with hyperglycemia and ultrasound
Text: The oxygen metabolism in malignant cells is affected in such a way that increased NO production in these cells results in increased binding of NO to the hem iron, thereby disturbing the normal function thereof. The formation of such NO bonds becomes manifest in the EPR spectrum as a characteristic triplet overlying a singlet.
The effect of complex A on the concentration of Fe—NO bonds was investigated in an experiment using rats. The Walker carcinosarcoma was transplanted in the rats. 17 days after transplantation the animals were administered intraabdominally with complex A at a dosage of 30 mg/kg, suspended in liposomes from egg lecithin. Some of the animals also received glucose or glucose plus ultrasound.

[8] = test system: hematopoietic cells in the spleen; test: Radioprotective effect in irradiated mice; assay type: in vivo, white mice; conditions: 6 Gray; 5 mg/kg two hours prior to and three days after irradiation; day 9
Protocol: White mice of no particular race were irradiated with a sublethal dose of 6 Gray. […] The animals were sacrificed on day 9 after irradiation, and the number of hematopoietic cells in the spleen was determined. No hematopoietic cells were detected in the spleen of untreated animals.

Copper-sarcolysine hydrochloride complex [complex A]
Living cells, % ([1]; Experiment 2, T4N2M0): 18.0 ± 1.71% | Dead cells, % ([1]; Experiment 2, T4N2M0, 40 million cells, 50 μl of preparation): 82.0 ± 1.78% | Living cells, % ([2]; Experiment 1, T2N1M0): 24.0 ± 1.90% | Dead cells, % ([2]; Experiment 1, T2N1M0, 40 million cells, 50 μl of preparation): 76.0 ± 2.06% | formation of ROS in neutrophils (neutrophils): reduce or completely suppress | solubility in DMSO ([3]; dimethyl sulfoxide (DMSO)): dissolves | solubility in organic solvents ([3]; most / many organic solvents): insoluble | stability at room temperature ([3]; room temperature, even when exposed to oxygen): stable | solubility in water ([3]; water): insoluble | copper absorbed by Hep-2 cells ([4]; complex A in Tween 80 with lecithin liposomes, saturation value): 4.5×10^13 spin per gram | intake of copper-containing molecules in a cell ([4]; corresponds to the spin value): 10 molecules in a cell | intracellular accumulation of the copper complex ([4]; fractionated filtrate, EPR signal of copper): accumulated almost entirely in the nuclear chromatin | induction of apoptosis in lymphoblasts [5]: about 26% | concentration of cytosolic calcium (thymocytes [6]): increase | influence on the membrane potential of thymocytes (thymocytes [7]): hyperpolarization of the cell membranes | concentration of Fe—NO bonds (EPR) (Walker carcinosarcoma): significantly reduces | number of colonies of hematopoietic cells in the spleen [8]: about 40 colonies
